# Reference: patent US8722903B2, “Indazole derivatives for the treatment of HSP9O-induced diseases” (Merck Patent GmbH, priority 2006, dated 2014)
# Molecular target: T1, Recombinant human HSP90α (Homo sapiens, UniProt P07900)
# T1 construct: host or cells: E. coli
# Experiment: Radioligand filter binding test: competitive inhibition of [3H]17AAG binding to HSP90
# Conditions: [3H]17AAG 0.08 μM, HSP90 1.5 μg/assay, 22° C., 30 min
# Description: In the specific case, a radioligand filter binding test is used. The radioligand used here is tritium-labelled 17-allylaminogeldanamycin, [3H]17AAG, This filter binding test allows a targeted search for inhibitors which interfere with the ATP binding site.
# Recombinant human HSP90α (E. coli expressed, 95% purity);
# HEPES filter buffer (50 mM HEPES, pH 7.0, 5 mM MgCl2, BSA 0.01%) Multiscreen FB (1 μm) filter plate (Millipore, MAFBNOB 50).
# The 96-well microtitre filter plates are firstly irrigated and coated with 0.1% of polyethylenimine.
# The test is carried out under the following conditions:
# Reaction temperature 22° C.
# Reaction time: 30 min., shaking at 800 rpm
# 50 mM HEPES HCl, pH 7.0, 5 mM MgCl2, 0.01% (w/v) of BSA
# At the end of the reaction, the supernatant in the filter plate is removed by suction with the aid of a vacuum manifold (Multiscreen Separation System, Millipore), and the filter is washed twice.
# The filter plates are then measured in a beta counter (Microbeta, Wallac) with scintillator (Microscint 20, Packard).
# “% of control” is determined from the “counts per minutes” values, and the IC-50 value of a compound is calculated therefrom.
row,Compound,IC50
1,"CCc1ccc(Cc2n[nH]c3cc(O)c(C(=O)N(C)Cc4ccccc4)cc23)cc1 [Compound A71, 5-(N-Benzyl-N-methylaminocarbonyl)-3-(4-ethylbenzyl)-6-hydroxy-1H-indazole]",1000 to 10000 nM
2,"Cc1cccc(Cc2n[nH]c3cc(O)c(C(=O)N(C)C4CCCCC4)cc23)c1 [Compound A195, 5-(N-Cyclohexyl-N-methylaminocarbonyl)-3-(3-methylbenzyl)-6-hydroxy-1H-indazole]",1000 to 10000 nM
3,"CCCCN(C)C(=O)c1cc2c(Cc3cccc(C)c3)n[nH]c2cc1O [Compound A25, 5-(N-Butyl-N-methylaminocarbonyl)-3-(3-methylbenzyl)-6-hydroxy-1H-indazole]",10 to 1000 nM
4,"CCCc1n[nH]c2cc(O)c(C(=O)N(C)c3ccc4c(c3)OCO4)cc12 [Compound A175, 5-[N-(Benzo-1,3-dioxol-5-yl)-N-methylaminocarbonyl]-3-propyl-6-hydroxy-1H-indazole]",10 to 1000 nM
5,"CN(Cc1cccc(C(F)(F)F)c1)C(=O)c1cc2c(Cc3ccccc3)n[nH]c2cc1O [Compound A29, 5-[N-(3-Trifluoromethylbenzyl)-N-methylaminocarbonyl]-3-benzyl-6-hydroxy-1H-indazole]",1000 to 10000 nM
6,"CCCCN(C)C(=O)c1cc2c(Cc3cccc(Cl)c3)n[nH]c2cc1O [Compound A39, 5-(N-Butyl-N-methylaminocarbonyl)-3-(3-chlorobenzyl)-6-hydroxy-1H-indazole]",10 to 1000 nM
7,"CCCc1n[nH]c2cc(O)c(C(=O)N(C)Cc3ccccc3)cc12 [Compound A178, 5-(N-Benzyl-N-methylaminocarbonyl)-3-propyl-6-hydroxy-1H-indazole]",10 to 1000 nM
8,"CCCN(C)C(=O)c1cc2c(Cc3cc(C)cc(F)c3)n[nH]c2cc1O [Compound A52, 5-(N-Propyl-N-methylaminocarbonyl)-3-(3-fluoro-5-methylbenzyl)-6-hydroxy-1H-indazole]",1000 to 10000 nM
9,"CCCCN(C)C(=O)c1cc2c(Cc3ccccc3C)n[nH]c2cc1O [Compound A43, 5-(N-Butyl-N-methylaminocarbonyl)-3-(2-methylbenzyl)-6-hydroxy-1H-indazole]",1000 to 10000 nM
10,"Cc1ccccc1Cc1n[nH]c2cc(O)c(C(=O)N(C)Cc3ccccc3)cc12 [Compound A44, 5-(N-Benzyl-N-methylaminocarbonyl)-3-(2-methylbenzyl)-6-hydroxy-1H-indazole]",1000 to 10000 nM
11,"CN(Cc1ccccc1)C(=O)c1cc2c(CCc3ccccc3)n[nH]c2cc1O [Compound A181, 5-(N-Benzyl-N-methylaminocarbonyl)-3-phenethyl-6-hydroxy-1H-indazole]",10 to 1000 nM
12,"COCCN(C)C(=O)c1cc2c(Cc3cccc(Cl)c3)n[nH]c2cc1O [Compound A41, 5-[N-(2-Methoxyethyl)-N-methylaminocarbonyl]-3-(3-chlorobenzyl)-6-hydroxy-1H-indazole]",1000 to 10000 nM
13,"Cc1ccc(N(C)C(=O)c2cc3c(CC4CCCC4)n[nH]c3cc2O)cc1 [Compound A256, 5-[N-(4-Methylphenyl)-N-methylaminocarbonyl]-3-cyclopentylmethyl-6-hydroxy-1H-indazole]",10 to 1000 nM
14,"CCCCN(C)C(=O)c1cc2c(Cc3ccc(C)cc3)n[nH]c2cc1O [Compound A64, 5-(N-Butyl-N-methylaminocarbonyl)-3-(4-methylbenzyl)-6-hydroxy-1H-indazole]",1000 to 10000 nM
15,"CC(=O)N1CCc2cc(N(C)C(=O)c3cc4c(Cc5cccc(C)c5)n[nH]c4cc3O)ccc21 [Compound A157, 5-[N-(1-Acetyl-2,3-dihydro-1H-indol-5-yl)-N-methylaminocarbonyl]-3-(3-methylbenzyl)-6-hydroxy-1H-indazole]",10 to 1000 nM
16,"COc1cc(N(C)C(=O)c2cc3c(Cc4cccc(C)c4)n[nH]c3cc2O)ccc1N1CCN(C)CC1 [Compound A190, 5-{N-[3-Methoxy-4-(4-methylpiperazin-1-yl)phenyl]-N-methylaminocarbonyl}-3-(3-methylbenzyl)-6-hydroxy-1H-indazole]",10 to 1000 nM
17,"COc1ccc(C)cc1CN(C)C(=O)c1cc2c(Cc3ccccc3)n[nH]c2cc1O [Compound A20, 5-[N-(2-Methoxy-5-methylbenzyl)-N-methylaminocarbonyl]-3-benzyl-6-hydroxy-1H-indazole]",1000 to 10000 nM
18,"COc1ccc(Cl)cc1CN(C)C(=O)c1cc2c(Cc3ccccc3)n[nH]c2cc1O [Compound A31, 5-[N-(3-Chloro-6-methoxybenzyl)-N-methylaminocarbonyl]-3-benzyl-6-hydroxy-1H-indazole]",1000 to 10000 nM
19,"COc1cccc(Cc2n[nH]c3cc(O)c(C(=O)N(C)c4ccc(CNS(C)(=O)=O)cc4)cc23)c1 [Compound A162, 5-[N-(4-Methylsulfonylaminomethylphenyl)-N-methylaminocarbonyl]-3-(3-methoxybenzyl)-6-hydroxy-1H-indazole]",10 to 1000 nM

row,Compound,IC50
1,"CCCN(C)C(=O)c1cc2c(Cc3cccc(Cl)c3)n[nH]c2cc1O [Compound A42, 5-(N-Propyl-N-methylaminocarbonyl)-3-(3-chlorobenzyl)-6-hydroxy-1H-indazole]",10 to 1000 nM
2,"CN(Cc1cccc2c1OCO2)C(=O)c1cc2c(Cc3ccccc3)n[nH]c2cc1O [Compound A30, 5-[N-(Benzo-1,3-dioxol-4-ylmethyl)-N-methylaminocarbonyl]-3-benzyl-6-hydroxy-1H-indazole]",1000 to 10000 nM
3,"CCCN(C)C(=O)c1cc2c(Cc3cccc(C)c3)n[nH]c2cc1O [Compound A38, 5-(N-Propyl-N-methylaminocarbonyl)-3-(3-methylbenzyl)-6-hydroxy-1H-indazole]",1000 to 10000 nM
4,"CN(Cc1ccccc1)C(=O)c1cc2c(Cc3ccccc3Cl)n[nH]c2cc1O [Compound A32, 5-(N-Benzyl-N-methylaminocarbonyl)-3-(2-chlorobenzyl)-6-hydroxy-1H-indazole]",1000 to 10000 nM
5,"COc1cccc(N(C)C(=O)c2cc3c(CC4CCCC4)n[nH]c3cc2O)c1 [Compound A257, 5-[N-(3-Methoxyphenyl)-N-methylaminocarbonyl]-3-cyclopentylmethyl-6-hydroxy-1H-indazole]",10 to 1000 nM
6,"CCCc1n[nH]c2cc(O)c(C(=O)N(C)c3ccc(CNS(C)(=O)=O)cc3)cc12 [Compound A177, 5-[N-(4-Methylsulfonylaminomethylphenyl)-N-methylaminocarbonyl]-3-propyl-6-hydroxy-1H-indazole]",10 to 1000 nM
7,"CCCc1n[nH]c2cc(O)c(C(=O)N(C)c3ccc(OC)c(OC)c3)cc12 [Compound A174, 5-[N-(3,4-Dimethoxyphenyl)-N-methylaminocarbonyl]-3-propyl-6-hydroxy-1H-indazole]",10 to 1000 nM
8,"COCCN(C)C(=O)c1cc2c(Cc3ccccc3Cl)n[nH]c2cc1O [Compound A34, 5-[N-(2-Methoxyethyl)-N-methylaminocarbonyl]-3-(2-chlorobenzyl)-6-hydroxy-1H-indazole]",> 10000 nM
9,"CCc1ccc(CN(C)C(=O)c2cc3c(Cc4ccccc4)n[nH]c3cc2O)cc1 [Compound A28, 5-[N-(4-Ethylbenzyl)-N-methylaminocarbonyl]-3-benzyl-6-hydroxy-1H-indazole]",10 to 1000 nM
10,"COc1cccc(CN(C)C(=O)c2cc3c(Cc4ccccc4)n[nH]c3cc2O)c1OC [Compound A23, 5-[N-(2,3-Dimethoxybenzyl)-N-methylaminocarbonyl]-3-benzyl-6-hydroxy-1H-indazole]",10 to 1000 nM
11,"CN(C(=O)c1cc2c(CC3CCCC3)n[nH]c2cc1O)c1ccc2c(c1)OCO2 [Compound A260, 5-[N-(Benzo-1,3-dioxol-5-yl)-N-methylaminocarbonyl]-3-cyclopentylmethyl-6-hydroxy-1H-indazole]",10 to 1000 nM
12,"Cc1ccc(Cc2n[nH]c3cc(O)c(C(=O)N(C)c4ccccc4)cc23)cc1 [Compound A122, 5-(N-Phenyl-N-methylaminocarbonyl)-3-(4-methylbenzyl)-6-hydroxy-1H-indazole]",10 to 1000 nM
13,"CN(Cc1ccccc1)C(=O)c1cc2c(Cc3cccc(Cl)c3)n[nH]c2cc1O [Compound A40, 5-(N-Benzyl-N-methylaminocarbonyl)-3-(3-chlorobenzyl)-6-hydroxy-1H-indazole]",10 to 1000 nM
14,"COc1ccc(N(C)C(=O)c2cc3c(Cc4cccc(OC)c4)n[nH]c3cc2O)cc1 [Compound A160, 5-[N-(4-Methoxyphenyl)-N-methylaminocarbonyl]-3-(3-methoxybenzyl)-6-hydroxy-1H-indazole]",10 to 1000 nM
15,5-[N-(3-Methoxybenzyl)-N-methylaminocarbonyl]-3-benzyl-6-hydroxy-1H-indazole [Compound A27],10 to 1000 nM
16,"CN(Cc1ccccc1)C(=O)c1cc2c(Cc3ccccc3)n[nH]c2cc1O [Compound A6, 5-(N-Benzyl-N-methylaminocarbonyl)-3-benzyl-6-hydroxy-1H-indazole]",10 to 1000 nM
17,"Cc1cccc(Cc2n[nH]c3cc(O)c(C(=O)N(C)c4ccc(CN5CCOCC5)cc4)cc23)c1 [Compound A191, 5-[N-(4-Morpholin-4-ylmethylphenyl)-N-methylaminocarbonyl]-3-(3-methylbenzyl)-6-hydroxy-1H-indazole]",10 to 1000 nM
18,"CCCN(C)C(=O)c1cc2c(Cc3ccccc3)n[nH]c2cc1O [Compound A4, 5-(N-propyl-N-methylaminocarbonyl)-3-benzyl-6-hydroxy-1H-indazole]",1000 to 10000 nM
19,"CCCN(C)C(=O)c1cc2c(Cc3ccccc3Cl)n[nH]c2cc1O [Compound A35, 5-(N-Propyl-N-methylaminocarbonyl)-3-(2-chlorobenzyl)-6-hydroxy-1H-indazole]",1000 to 10000 nM
